Tests used:
[1] = In vitro skin flux study of reservoir formulations, heat separated human epidermal membrane, modified Franz diffusion cells; type: in vitro ADME
Protocol: Two reservoir type formulations (I and II) were prepared for the determination of initial propentofylline skin flux rates.
Approximately 4.0 ml of a base solution was prepared in a 7 ml glass vial. This solution consisted of 50% v/v of ethanol, USP; 15% v/v purified water (18 Mohm-cm); 30% v/v glycerin, USP; 1% v/v of glycerol monooleate (GMO, "Myverol® 18-99); 1% v/v methyl laurate (ML). To one solution was added sufficient propentofylline provide a concentration of about 72 mg/ml of solution (Formulation I) and to the other was added sufficient propentofylline to provide a concentration of about 131 mg/ml of solution (Formulation II). To each solution was added about 3% v/v of hydroxypropyl methylcellulose (Methocel® E10M) as a thickening agent. […]
Dermatomed (≈[…]) full thickness human cadaver skin was obtained from skin banks. […] Information on age, race, sex and anatomical site of the donor skin was recorded when available.
[…] skin flux studies were conducted using a heat separated human epidermal membrane and modified Franz diffusion cells. […] At predetermined time points, the entire contents of the receiver compartment were collected for drug quantitation,and the receiver compartment refilled with fresh receptor medium, taking care to eliminate any air bubbles at the skin/solution interface. […]

[2] = cited from earlier work
[3] = cited from earlier work; remark: listed apart in the source
[4] = oral treatment; cited from earlier work
nucleoside transport = conditions: cerebral ischemia; cited from earlier work

For CCCn1cnc2c1c(=O)n(CCCCC(C)=O)c(=O)n2C [propentofylline, 1-(5'-oxohexyl)-3-methyl-7-propylxanthine], the constant migration rate [1] is listed as “about 2 mg/cm^2 /24 h”, the “sustained daily dosage provided by transdermal delivery” value [1] is listed as 30 mg and the plasma propentofylline concentration ([2]; 2 hours following a single 300 mg oral dose, concluded from literature PK data) is listed as about 10 ng/mL. The elimination half-life ([2]; humans) was 15 to 45 min, the “hepatic first pass metabolism” value ([2]; humans) was “extensive hepatic first pass metabolism primarily to inactive metabolites” and the “absolute bioavailability after oral administration” value ([2]; oral, humans) was 5-10%. For the same compound, the “effect of food on bioavailability” value ([2]; oral, humans) was “Drug interactions with food further reduce bioavailability”, the “rate of deterioration / acute improvement of patient's condition” value ([3]; neuroprotective effect) was “although not producing an acute improvement in the patient's condition, does cause a reduction in the rate of deterioration” and the “clinical parameters in dementia” value ([3]; placebo controlled trials, mild to moderate dementia) was “positively influence clinical parameters in placebo controlled trials”. For the same compound, the “most frequent side effects” value [4] was “headaches, dizziness, gastrointestinal pain and nausea” and the “nucleoside transport inhibition, neuroprotective effects” value (nucleoside transport) was “nucleoside transport inhibitor with neuroprotective effects in cerebral ischemia”.
